According to US20200023001A1, “GlycoFix (Structurally And Functionally Repaired Endothelial Glycocalyx)” (Northeastern University, priority 2018, published 2020):
Several values for one entry are separate records, joined by “and”; a condition that tells them apart may be missing. Equal values may be shown once.

System: Cx43 at RFPEC borders
Experiment: Cx43 expression at EC borders, immunostaining and confocal microscopy
Assay type: cell-based, rat
Method: Cell Culture. Rat fat pad ECs (RFPEC) at passages 20 to 39 were offspring of cells isolated from rat epididymal fat pad and provided by Dr. Mia Thi of Albert Einstein College of Medicine (Bronx, N.Y.). […] The RFPECs are immortalized, making it possible to use late passages. RFPEC were seeded on 12-14-mm diameter and 0.13-0.17-mm thick glass coverslips at a seeding density of 15,000-20,000 cells/cm^2. Cells were cultured in Dulbecco's Modified Eagle Medium (DMEM, Invitrogen, USA) with 1% penicillin-streptomycin (PS) and 10% fetal bovine serum (FBS, Gibco Life Technologies). Cells were maintained in humidity at 37° C. and 5% CO2. RFPECs reached full confluence in 3 days.
Cultured RFPECs produce thick and robust GCX in this time period. At 3 days post-seeding the RFPECs' culture medium was supplemented with 1% BSA in place of FBS to stabilize the GCX during preservation and immunolabeling (described below). For enzyme treatment experiments, 25 micro-international units per milliliter (μIU/ml) of heparinase III (Hep III; IBEX, Canada) were added to BSA-containing culture media for 2 hours to degrade HS from the GCX [46]. HepIII was washed out, and the wash-out was followed by a 16-hour incubation of RFPECs in regular BSA-containing media. In self-recovery experiments, RFPEC GCX was left to recover for 24 hours after enzyme degradation. The time frame was chosen in accordance with the 20-hour time period that is required for HS restoration to occur on the surface of ECs. For HS recovery experiments, exogenous HS and/or S1P were applied for 16 hours to accommodate the communication test as an assessment of functional glycocalyx recovery. […] After HS was degraded with HepIII, it was replaced by a 16-hour feeding of RFPECs with 59 μg/ml exogenous porcine mucosal HS (Celsus, Cincinnati, Ohio), based on published serum concentration of HS [43]. In sphingosine-1-phosphate experiments, culture media containing enzyme was substituted for media containing either 10 μM of S1P (Sigma-Aldrich) or a combination of 59 μg/ml of HS and 10 μM of S1P for 16 hours after enzyme degradation.
As specified by the manufacturer, the HS antibody reacts with many types of heparan sulfate. The reactivity of the HS antibody is abolished after treatment with Hep III, indicating antibody specificity. For secondary detection of HS, Alexa Flour 488 conjugated goat anti-mouse IgG/IgM (H+L; Life Technologies) secondary antibody was used. RFPECs to be processed for connexin 43 (Cx43) were fixed in 4% paraformaldehyde, permeabilized in 0.2% Triton X-100 (Fisher), and blocked in 5% goat serum combined with 0.2% Triton X-100. Connexin 43 staining was performed overnight at 4° C. with 1:100 mouse monoclonal Cx43 antibody (Millipore). […] Secondary Cx43 detection was done with Alexa Flour 488 conjugated goat anti-mouse IgG. […] These controls confirmed that the staining observed in the RFPECs is not an artefact.
Confocal immunofluorescence microscopy imaging and analysis. Alexa Fluor 488 fluorescent RFPECs were mounted with Vectashield containing DAPI (Vector Labs) and imaged with a Zeiss LSM 700 laser scanning confocal microscope. HS and Cx43 were imaged at 63× magnification (oil objective) and 40× magnification (oil objective), respectively. Lasers with excitation wavelengths of 490 nm (for HS or Cx43) and 350 nm (for DAPI) were used to obtain XY-plane slices. Laser gain and transmission were kept below fluorophore saturation levels. Confocal slice intervals were 0.2 μm for HS and 0.7 μm for Cx43. […]

For heparan sulfate [HS], the “Cx43 distribution along the perimeter of the cells” value (RFPEC, Hep III, then 16 h with or without 59 μg/ml HS and/or 10 μM S1P, mean±SEM) was 46% and 46.45±4.21%, the “Cx43 distribution/expression, result in words (FIG. 3 legend)” value (after Hep III, HS 59 μg/ml, S1P 10 μM) was “partially restored” and the “Cx43 recovery at cell borders, % of baseline conditions” value (treatment after enzymatic HS degradation) was “approximately 80%”.
